# Source: ChEMBL document CHEMBL2203079, “Virtual screening and QSAR study of some pyrrolidine derivatives as α-mannosidase inhibitors for binding feature analysis” (Bioorg Med Chem, 2012)
# Activity calls are given as the source filed them. The rule behind the calls is not given here.
# How the values were obtained:
# Canavalia ensiformis = assay: Inhibition of jack bean alpha-mannosidase assessed as p-nitrophenylglycoside substrate hydrolysis at 1 mM
# Prunus dulcis = assay: Inhibition of almond alpha-mannosidase assessed as p-nitrophenylglycoside substrate hydrolysis at 1 mM
# Alpha-mannosidase 2 = molecular target: T1, Alpha-mannosidase 2 (Homo sapiens, UniProt Q16706); assay: Inhibition of human golgi alpha mannosidase 2
# T1 sequence (Q16706 whole entry): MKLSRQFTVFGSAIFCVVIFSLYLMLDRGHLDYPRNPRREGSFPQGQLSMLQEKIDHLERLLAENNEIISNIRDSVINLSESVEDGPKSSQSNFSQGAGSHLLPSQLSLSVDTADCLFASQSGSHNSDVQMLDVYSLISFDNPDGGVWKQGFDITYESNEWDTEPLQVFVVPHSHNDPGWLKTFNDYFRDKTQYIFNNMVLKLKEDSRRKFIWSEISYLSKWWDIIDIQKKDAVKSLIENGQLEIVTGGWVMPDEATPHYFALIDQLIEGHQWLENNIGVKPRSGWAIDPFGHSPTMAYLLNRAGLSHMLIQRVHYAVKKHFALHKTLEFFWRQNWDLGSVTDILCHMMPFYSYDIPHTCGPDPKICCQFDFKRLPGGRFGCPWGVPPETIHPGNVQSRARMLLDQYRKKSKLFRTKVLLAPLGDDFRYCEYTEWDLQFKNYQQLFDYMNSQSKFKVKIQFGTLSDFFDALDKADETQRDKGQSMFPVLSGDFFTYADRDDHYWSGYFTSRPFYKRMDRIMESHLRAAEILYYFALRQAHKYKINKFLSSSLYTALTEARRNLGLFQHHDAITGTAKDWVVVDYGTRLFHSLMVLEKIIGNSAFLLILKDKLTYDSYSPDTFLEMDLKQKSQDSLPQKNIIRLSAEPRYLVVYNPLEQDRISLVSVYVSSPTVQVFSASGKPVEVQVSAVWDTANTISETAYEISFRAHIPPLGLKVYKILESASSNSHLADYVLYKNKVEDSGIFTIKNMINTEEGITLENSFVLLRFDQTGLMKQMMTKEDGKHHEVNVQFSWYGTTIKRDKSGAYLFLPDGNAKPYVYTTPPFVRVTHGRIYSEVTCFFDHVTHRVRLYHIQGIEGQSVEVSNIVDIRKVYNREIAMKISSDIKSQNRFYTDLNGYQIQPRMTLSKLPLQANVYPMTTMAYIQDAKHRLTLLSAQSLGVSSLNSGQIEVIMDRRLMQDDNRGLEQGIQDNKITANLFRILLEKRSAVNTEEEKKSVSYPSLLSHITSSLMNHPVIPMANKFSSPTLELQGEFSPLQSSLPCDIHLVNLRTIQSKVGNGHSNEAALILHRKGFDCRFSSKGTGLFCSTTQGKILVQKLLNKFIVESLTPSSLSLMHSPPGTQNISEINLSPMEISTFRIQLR
# [1] = molecular target: T2, Endoplasmic reticulum mannosyl-oligosaccharide 1,2-alpha-mannosidase (Homo sapiens, UniProt Q9UKM7); assay: Inhibition of human ER alpha mannosidase 1
# T2 sequence (Q9UKM7 whole entry): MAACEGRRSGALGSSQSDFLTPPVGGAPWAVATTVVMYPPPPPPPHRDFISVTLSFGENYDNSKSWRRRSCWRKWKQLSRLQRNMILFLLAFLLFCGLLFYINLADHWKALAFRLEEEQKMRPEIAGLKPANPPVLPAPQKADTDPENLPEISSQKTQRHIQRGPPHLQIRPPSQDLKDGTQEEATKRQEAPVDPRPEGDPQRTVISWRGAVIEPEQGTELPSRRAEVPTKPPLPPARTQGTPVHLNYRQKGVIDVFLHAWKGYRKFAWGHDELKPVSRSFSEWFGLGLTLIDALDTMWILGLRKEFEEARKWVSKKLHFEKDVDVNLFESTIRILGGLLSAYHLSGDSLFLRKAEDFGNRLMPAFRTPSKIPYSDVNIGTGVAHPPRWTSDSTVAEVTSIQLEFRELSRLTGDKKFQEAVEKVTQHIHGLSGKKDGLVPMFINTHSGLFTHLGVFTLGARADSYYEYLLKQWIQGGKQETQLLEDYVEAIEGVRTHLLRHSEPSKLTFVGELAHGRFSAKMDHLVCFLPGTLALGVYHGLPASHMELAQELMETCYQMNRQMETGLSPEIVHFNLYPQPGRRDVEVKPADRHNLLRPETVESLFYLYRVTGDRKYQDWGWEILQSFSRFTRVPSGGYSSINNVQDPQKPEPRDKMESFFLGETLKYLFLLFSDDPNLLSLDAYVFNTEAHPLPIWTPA
compound,measurement,setting,value
COC[C@H](NC[C@H]1NC[C@H](O)[C@@H]1O)c1ccccc1,inhibition,Canavalia ensiformis,77%
same,inhibition,Prunus dulcis,63%
same,Ki,Alpha-mannosidase 2,36 µM
same,Ki,[1],12.1 µM
CC(NC[C@H]1NC[C@H](O)[C@@H]1O)C(O)(c1ccccc1)c1ccccc1 (stereo partly specified),inhibition,Canavalia ensiformis,inactive
same,inhibition,Prunus dulcis,inactive
same,Ki,Alpha-mannosidase 2,80.8 µM
same,Ki,[1],27.1 µM
OCC(O)[C@H]1NC[C@H](O)[C@@H]1O (stereo partly specified),inhibition,Canavalia ensiformis,inactive
same,inhibition,Prunus dulcis,inactive
same,Ki,Alpha-mannosidase 2,229 µM
same,Ki,[1],169 µM
O[C@H]1[C@@H](O)CN[C@@H]1CNCn1ccnc1,inhibition,Canavalia ensiformis,55%
same,inhibition,Prunus dulcis,59%
same,Ki,Alpha-mannosidase 2,568 µM
same,Ki,[1],326 µM
CC(=O)N(CNC[C@H]1NC[C@H](O)[C@@H]1O)Cc1ccccc1,inhibition,Canavalia ensiformis,inactive
same,inhibition,Prunus dulcis,inactive
same,Ki,Alpha-mannosidase 2,64.9 µM
same,Ki,[1],44.8 µM
O[C@H]1[C@@H](O)CN[C@@H]1CNC1CCCC1,inhibition,Canavalia ensiformis,60%
same,inhibition,Prunus dulcis,53%
same,Ki,Alpha-mannosidase 2,333 µM
same,Ki,[1],66.9 µM
O[C@H]1[C@@H](O)CN[C@@H]1CNCc1ccccc1,inhibition,Canavalia ensiformis,92%
same,Ki,Alpha-mannosidase 2,152 µM
same,Ki,[1],35 µM
O[C@H]1[C@@H](O)CN[C@@H]1CNCc1cccs1,inhibition,Canavalia ensiformis,89%
same,inhibition,Prunus dulcis,68%
same,Ki,Alpha-mannosidase 2,233 µM
same,Ki,[1],77.7 µM
O[C@H]1[C@@H](O)CN[C@@H]1CN[C@H](c1ccccc1)[C@@H](O)c1ccccc1,inhibition,Canavalia ensiformis,88%
same,inhibition,Prunus dulcis,55%
same,Ki,Alpha-mannosidase 2,7.77 µM
same,Ki,[1],0.79 µM
O[C@H]1[C@@H](O)CN[C@@H]1CN[C@@H](COCOc1cccc(Br)c1)c1ccccc1,inhibition,Canavalia ensiformis,79%
same,Ki,Alpha-mannosidase 2,12.8 µM
same,Ki,[1],0.31 µM
OC(O)C[C@H]1NC[C@H](O)[C@@H]1O,inhibition,Canavalia ensiformis,81%
same,Ki,Alpha-mannosidase 2,438 µM
same,Ki,[1],287 µM
O[C@H]1[C@@H](O)CN[C@@H]1CNCc1ccco1,inhibition,Canavalia ensiformis,49%
same,inhibition,Prunus dulcis,29%
same,Ki,Alpha-mannosidase 2,292 µM
same,Ki,[1],136 µM
OC[C@H](NC[C@H]1N[C@H](CO)[C@H](O)[C@@H]1O)c1ccccc1,inhibition,Canavalia ensiformis,98%
same,inhibition,Prunus dulcis,96%
same,Ki,Alpha-mannosidase 2,11.8 µM
same,Ki,[1],24.6 µM
C[C@H](O)NC[C@H]1NC[C@H](O)[C@@H]1O,inhibition,Canavalia ensiformis,66%
same,inhibition,Prunus dulcis,45%
same,Ki,Alpha-mannosidase 2,683 µM
same,Ki,[1],488 µM
O[C@H]1[C@@H](O)CN[C@@H]1CN[C@@H](COCc1ccccc1)c1ccccc1,inhibition,Canavalia ensiformis,92%
same,inhibition,Prunus dulcis,75%
same,Ki,Alpha-mannosidase 2,68.3 µM
same,Ki,[1],0.23 µM
O[C@H]1[C@@H](O)CN[C@@H]1CN[C@@H](COCOc1ccc(Br)cc1)c1ccccc1,inhibition,Canavalia ensiformis,92%
same,Ki,Alpha-mannosidase 2,15.5 µM
same,Ki,[1],0.31 µM
CC(NC[C@H]1NC[C@H](O)[C@@H]1O)c1ccccc1 (stereo partly specified),inhibition,Canavalia ensiformis,66%
same,inhibition,Prunus dulcis,48%
same,Ki,Alpha-mannosidase 2,82.3 µM
same,Ki,[1],28.1 µM
OC[C@H]1NC[C@H](O)[C@@H]1O [IMINORIBITOL],inhibition,Canavalia ensiformis,54%
same,inhibition,Prunus dulcis,37%
same,Ki,Alpha-mannosidase 2,1430 µM
same,Ki,[1],1.26 µM
O[C@H]1[C@@H](O)CN[C@@H]1CNCC1CCN(Cc2ccccc2)CC1,inhibition,Canavalia ensiformis,55%
same,inhibition,Prunus dulcis,59%
same,Ki,Alpha-mannosidase 2,43.2 µM
same,Ki,[1],13.1 µM
O[C@H]1[C@@H](O)CN[C@@H]1CN[C@@H](COCOc1ccc(F)cc1)c1ccccc1,inhibition,Canavalia ensiformis,92%
same,Ki,Alpha-mannosidase 2,6.47 µM
same,Ki,[1],0.44 µM
O[C@H]1[C@@H](O)CN[C@@H]1CN[C@@H](c1ccccc1)[C@H](O)c1ccccc1,inhibition,Canavalia ensiformis,84%
same,inhibition,Prunus dulcis,50%
same,Ki,Alpha-mannosidase 2,25.9 µM
same,Ki,[1],2.62 µM
O[C@@H]1CNC[C@@H]1O,inhibition,Canavalia ensiformis,70%
same,inhibition,Prunus dulcis,40%
same,Ki,Alpha-mannosidase 2,531 µM
same,Ki,[1],3.24 µM
OC[C@@H](NC[C@H]1NC[C@H](O)[C@@H]1O)c1ccccc1,inhibition,Canavalia ensiformis,92%
same,inhibition,Prunus dulcis,55%
same,Ki,Alpha-mannosidase 2,29.9 µM
same,Ki,[1],12 µM
O[C@H]1[C@@H](O)CN[C@@H]1CN[C@@H](COCOc1ccccc1F)c1ccccc1,inhibition,Canavalia ensiformis,83%
same,Ki,Alpha-mannosidase 2,11.3 µM
same,Ki,[1],0.91 µM
O[C@H]1[C@@H](O)CN[C@@H]1CCNc1ccccc1,inhibition,Canavalia ensiformis,33%
same,inhibition,Prunus dulcis,inactive
same,Ki,Alpha-mannosidase 2,123 µM
same,Ki,[1],74.3 µM
O=C(NC[C@H](NC[C@H]1NC[C@H](O)[C@@H]1O)c1ccccc1)c1ccccc1Br,inhibition,Canavalia ensiformis,89%
same,Ki,Alpha-mannosidase 2,4.35 µM
same,Ki,[1],0.16 µM
O[C@H]1[C@@H](O)CN[C@@H]1CN[C@@H](COCc1cccc(F)c1)c1ccccc1,inhibition,Canavalia ensiformis,99%
same,Ki,Alpha-mannosidase 2,9.14 µM
same,Ki,[1],0.76 µM
NC[C@H]1NC[C@H](O)[C@@H]1O,inhibition,Canavalia ensiformis,81%
same,inhibition,Prunus dulcis,51%
same,Ki,Alpha-mannosidase 2,1310 µM
same,Ki,[1],1.59 µM
OC[C@H](NC[C@H]1NC[C@H](O)[C@@H]1O)c1ccccc1,inhibition,Prunus dulcis,93%
same,Ki,Alpha-mannosidase 2,26.9 µM
same,Ki,[1],16.8 µM
C[C@@H](O)NC[C@H]1NC[C@H](O)[C@@H]1O,inhibition,Canavalia ensiformis,75%
same,inhibition,Prunus dulcis,39%
same,Ki,Alpha-mannosidase 2,450 µM
same,Ki,[1],918 µM
